# Assay results: EP4725957A1, “GROUP OF CYCLIC ALKALINE LIPOPEPTIDE COMPOUNDS, AND PREPARATION METHOD THEREFOR AND USE THEREOF” (Institute of Medicinal Biotechnology, Chinese Academy of …, priority 2023, dated 2024)
# Bridge positions count the residues as written; N and C are the ends. Square brackets hold non-standard residues; d marks the D form. Peptide text beside a SMILES is read from it. * marks the point of attachment. Dab(CH2SO3H) = N[C@@H](CCNCS(=O)(=O)O)C(=O)O; Heptanoyl(6-Me) = CC(C)CCCCC(=O)*; dOrn = NCCC[C@@H](N)C(=O)O; Nonanoyl = CCCCCCCCC(=O)*; X1 = CC[C@H](C)CCCCC(=O)*; dDab = NCC[C@@H](N)C(=O)O; Octanoyl = CCCCCCCC(=O)*; Orn = NCCC[C@H](N)C(=O)O; dDap = NC[C@@H](N)C(=O)O; Dab = NCC[C@H](N)C(=O)O; Dap = NC[C@H](N)C(=O)O
# Experiments:
# Format in all cases: cell-based
# [1] = system: Klebsiella pneumoniae KPN+19-15; details: KPN+19-15
# Procedure, shortened: (§1)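 Broth microdilution MIC per CLSI in MH broth, compounds 2-fold diluted to final 64–0.03 mg/L. Inoculum (2-4) × 10^5 CFU/mL final, from 0.5 McFarland suspensions of 18-24 h colonies. Plates sealed and incubated 35-37°C for 16-20 h.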
# [2] = system: Klebsiella pneumoniae ATCC BAA-1705 (KPC); details: ATCC BAA-1705
# Procedure, shortened: as §1
# [3] = system: Acinetobacter baumannii ABA19-1; details: ABA19-1
# Procedure, shortened: as §1
# [4] = system: Escherichia coli ATCC BAA-2523; details: ATCC BAA-2523
# Procedure, shortened: as §1
# [5] = system: Pseudomonas aeruginosa ATCC 27853; details: ATCC 27853
# Procedure, shortened: as §1
# [6] = system: Acinetobacter baumannii NCTC 13304 (OXA-27); details: NCTC 13304
# Procedure, shortened: as §1
# [7] = system: Escherichia coli ATCC BAA-2340 (KPC); details: ATCC BAA-2340
# Procedure, shortened: as §1
# [8] = system: Pseudomonas aeruginosa PAE19-3; details: PAE19-3
# Procedure, shortened: as §1
# [9] = Nephrotoxicity assay: in vitro cytotoxicity of HK-2 cells by CCK-8 assay; details: human, HK-2 cells (human renal), 72 h incubation with drug-containing medium
# Procedure, shortened: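 HK-2 human renal cells in RPMI-1640 with 10% FBS were exposed to compounds at final 12.5–500 µg/mL for 72 h, then CCK-8 for 3 h and OD450 read. Viability was normalised to drug-free wells; IC50 came from logarithmic regression over three repeats, with polymyxin B as positive drug.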
Compound,MIC [1] [µg/mL],MIC [2] [µg/mL],MIC [3] [µg/mL],MIC [4] [µg/mL],MIC [5] [µg/mL],MIC [6] [µg/mL],MIC [7] [µg/mL],MIC [8] [µg/mL],IC50 at 72 h [9] [µg/mL]
"CC(C)CCCCC(=O)N[C@@H](CCN)C(=O)N[C@H](C(=O)N[C@@H](CN)C(=O)N[C@H]1CCNC(=O)[C@H]([C@@H](C)O)NC(=O)[C@H](CCNCS(=O)(=O)O)NC(=O)[C@H](CCN)NC(=O)[C@H]([C@@H](C)O)NC(=O)[C@@H](Cc2ccccc2)NC(=O)[C@H](CCN)NC1=O)[C@@H](C)O [Compound 120, 6-methylheptanoyl-Dab-Thr-Dap-ring(4-10)[Dab-Dab-D-Phe-Thr-Dab-Dab(CH2SO3H)-Thr]] ({Heptanoyl(6-Me)}-[Dab]T[Dap][Dab][Dab][dF]T[Dab][Dab(CH2SO3H)]T; lactam 4-C)",0.125,0.125,0.25,0.06,0.25,0.06,0.06,0.5,> 500
"CCCCCCCCC(=O)N[C@@H](CCN)C(=O)N[C@H](C(=O)N[C@H](CO)C(=O)N[C@H]1CCNC(=O)[C@H]([C@@H](C)O)NC(=O)[C@H](CN)NC(=O)[C@H](CCN)NC(=O)[C@H]([C@@H](C)O)NC(=O)[C@@H](Cc2ccccc2)NC(=O)[C@H](CCN)NC1=O)[C@@H](C)O [Compound 85, Nonanoyl-Dab-Thr-D-Ser-ring(4-10)[Dab-Dab-D-Phe-Thr-Dab-Dap-Thr]] (Nonanoyl-[Dab]T[dS][Dab][Dab][dF]T[Dab][Dap]T; lactam 4-C)",0.5,0.25,0.06,0.25,>64,0.03,0.25,64,357 ± 28.8
"CC[C@H](C)CCCCC(=O)N[C@@H](CCN)C(=O)N[C@H](C(=O)N[C@H](CCCN)C(=O)N[C@H]1CCNC(=O)[C@H]([C@@H](C)O)NC(=O)[C@H](CCN)NC(=O)[C@H](CCN)NC(=O)[C@H]([C@@H](C)O)NC(=O)[C@@H](Cc2ccccc2)NC(=O)[C@H](CCN)NC1=O)[C@@H](C)O [Compound 21, (S)-6-methyloctanoyl-Dab-Thr-D-Orn-ring(4-10)[Dab-Dab-D-Phe-Thr-Dab-Dab-Thr]] (X1-[Dab]T[dOrn][Dab][Dab][dF]T[Dab][Dab]T; lactam 4-C)",0.125,0.06,0.125,≤0.03,0.25,0.06,≤0.03,1,> 500
"CC(C)CCCCC(=O)N[C@@H](CN)C(=O)N[C@H](C(=O)N[C@H](CCN)C(=O)N[C@H]1CCNC(=O)[C@H]([C@@H](C)O)NC(=O)[C@H](CCN)NC(=O)[C@H](CCN)NC(=O)[C@H](CC(C)C)NC(=O)[C@@H](CC(C)C)NC(=O)[C@H](CCN)NC1=O)[C@@H](C)O [Compound 97, 6-methylheptanoyl-Dap-Thr-D-Dab-ring(4-10)[Dab-Dab-D-Leu-Leu-Dab-Dab-Thr]] ({Heptanoyl(6-Me)}-[Dap]T[dDab][Dab][Dab][dL]L[Dab][Dab]T; lactam 4-C)",0.03,0.03,0.03,0.03,0.5,0.03,0.03,0.5,217 ± 11.2
"CCCCCCCC(=O)N[C@@H](CCN)C(=O)N[C@H](C(=O)N[C@H](CCCN)C(=O)N[C@H]1CCNC(=O)[C@H]([C@@H](C)O)NC(=O)[C@H](CCN)NC(=O)[C@H](CCN)NC(=O)[C@H](CC(C)C)NC(=O)[C@@H](Cc2ccccc2)NC(=O)[C@H](CCN)NC1=O)[C@@H](C)O [Compound 43, Octanoyl-Dab-Thr-D-Orn-ring(4-10)[Dab-Dab-D-Phe-Leu-Dab-Dab-Thr]] (Octanoyl-[Dab]T[dOrn][Dab][Dab][dF]L[Dab][Dab]T; lactam 4-C)",0.125,0.06,0.125,0.03,0.25,0.06,0.03,1,328 ± 8.6
"CC(C)CCCCC(=O)N[C@@H](CCCN)C(=O)N[C@H](C(=O)N[C@H](CO)C(=O)N[C@H]1CCNC(=O)[C@H]([C@@H](C)O)NC(=O)[C@H](CCN)NC(=O)[C@H](CCN)NC(=O)[C@H]([C@@H](C)O)NC(=O)[C@@H](Cc2ccccc2)NC(=O)[C@H](CCN)NC1=O)[C@@H](C)O [Compound 57, 6-methylheptanoyl-Orn-Thr-D-Ser-ring(4-10)[Dab-Dab-D-Phe-Thr-Dab-Dab-Thr]] ({Heptanoyl(6-Me)}-[Orn]T[dS][Dab][Dab][dF]T[Dab][Dab]T; lactam 4-C)",0.5,0.25,0.25,0.125,64,0.25,0.125,4,> 500
"CC[C@H](C)CCCCC(=O)N[C@@H](CN)C(=O)N[C@H](C(=O)N[C@H](CO)C(=O)N[C@H]1CCNC(=O)[C@H]([C@@H](C)O)NC(=O)[C@H](CCN)NC(=O)[C@H](CCN)NC(=O)[C@H]([C@@H](C)O)NC(=O)[C@@H](Cc2ccccc2)NC(=O)[C@H](CCN)NC1=O)[C@@H](C)O [Compound 51, (S)-6-methyloctanoyl-Dap-Thr-D-Ser-ring(4-10)[Dab-Dab-D-Phe-Thr-Dab-Dab-Thr]] (X1-[Dap]T[dS][Dab][Dab][dF]T[Dab][Dab]T; lactam 4-C)",0.5,0.25,0.25,≤0.03,64,0.25,≤0.03,4,> 500
"CC(C)CCCCC(=O)N[C@@H](CCNCS(=O)(=O)O)C(=O)N[C@H](C(=O)N[C@H](CO)C(=O)N[C@H]1CCNC(=O)[C@H]([C@@H](C)O)NC(=O)[C@H](CCN)NC(=O)[C@H](CCN)NC(=O)[C@H]([C@@H](C)O)NC(=O)[C@@H](Cc2ccccc2)NC(=O)[C@H](CCN)NC1=O)[C@@H](C)O [Compound 108, 6-methylheptanoyl-Dab(CH2SO3H)-Thr-D-Ser-ring(4-10)[Dab-Dab-D-Phe-Thr-Dab-Dab-Thr]] ({Heptanoyl(6-Me)}-[Dab(CH2SO3H)]T[dS][Dab][Dab][dF]T[Dab][Dab]T; lactam 4-C)",0.125,0.125,0.25,0.06,0.25,0.06,0.06,0.5,> 500
"CC[C@H](C)CCCCC(=O)N[C@@H](CCN)C(=O)N[C@H](C(=O)N[C@H](CN)C(=O)N[C@H]1CCNC(=O)[C@H]([C@@H](C)O)NC(=O)[C@H](CCN)NC(=O)[C@H](CCN)NC(=O)[C@H]([C@@H](C)O)NC(=O)[C@@H](Cc2ccccc2)NC(=O)[C@H](CCN)NC1=O)[C@@H](C)O [Compound 1, (S)-6-methyloctanoyl-Dab-Thr-D-Dap-ring(4-10)[Dab-Dab-D-Phe-Thr-Dab-Dab-Thr]] (X1-[Dab]T[dDap][Dab][Dab][dF]T[Dab][Dab]T; lactam 4-C)",≤0.03,≤0.03,≤0.03,≤0.03,0.03,≤0.03,≤0.03,0.125,> 500
"CC[C@H](C)CCCCC(=O)N[C@@H](CCN)C(=O)N[C@H](C(=O)N[C@H](CCCN)C(=O)N[C@H]1CCNC(=O)[C@H]([C@@H](C)O)NC(=O)[C@H](CCN)NC(=O)[C@H](CCN)NC(=O)[C@H](CC(C)C)NC(=O)[C@@H](Cc2ccccc2)NC(=O)[C@H](CCN)NC1=O)[C@@H](C)O [Compound 41, (S)-6-methyloctanoyl-Dab-Thr-D-Orn-ring(4-10)[Dab-Dab-D-Phe-Leu-Dab-Dab-Thr]] (X1-[Dab]T[dOrn][Dab][Dab][dF]L[Dab][Dab]T; lactam 4-C)",0.125,0.06,0.125,0.03,0.25,0.06,0.03,1,259 ± 7.8
"CCCCCCCCC(=O)N[C@@H](CCN)C(=O)N[C@H](C(=O)N[C@@H](CN)C(=O)N[C@H]1CCNC(=O)[C@H]([C@@H](C)O)NC(=O)[C@H](CCN)NC(=O)[C@H](CCN)NC(=O)[C@H]([C@@H](C)O)NC(=O)[C@@H](Cc2ccccc2)NC(=O)[C@H](CCN)NC1=O)[C@@H](C)O [Compound 10, Nonanoyl-Dab-Thr-Dap-ring(4-10)[Dab-Dab-D-Phe-Thr-Dab-Dab-Thr]] (Nonanoyl-[Dab]T[Dap][Dab][Dab][dF]T[Dab][Dab]T; lactam 4-C)",0.06,0.06,0.06,0.06,0.25,0.06,0.06,0.5,350 ± 30.7
